# According to ChEMBL document CHEMBL1201862, “PubChem BioAssay data set” (2004):
#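 The compound was tested at five concentrations on cells cultured in 96-well plates, with a 48-hour exposure period. GI50: concentration for 50% inhibition of growth.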 The source made the active and inactive calls. Rule as the data show it: active = GI50 up to about 1.1 µM and inactive = higher.
# Tests used:
# Assay in all cases: NCI tumour cell line growth inhibition, 48 h
# [1] = test system: M14
# [2] = test system: OVCAR-4
# [3] = test system: DU-145
# [4] = test system: CAKI-1
# [5] = test system: RXF 393
# [6] = test system: 786-0
# [7] = test system: OVCAR-5
# [8] = test system: MOLT-4
# [9] = test system: OVCAR-3
# [10] = test system: SK-OV-3
# [11] = test system: COLO 205
# [12] = test system: KM12
# [13] = test system: SF-295
# [14] = test system: OVCAR-8
# [15] = test system: NCI-H23
# [16] = test system: HOP-92
# [17] = test system: BT-549
# [18] = test system: HOP-62
# [19] = test system: SNB-19
# [20] = test system: IGROV-1
# [21] = test system: A498
# [22] = test system: UO-31
# [23] = test system: A549
# [24] = test system: RPMI-8226
# [25] = test system: SF-539
# [26] = test system: NCI-H522
# [27] = test system: UACC-62
# [28] = test system: SW-620
# [29] = test system: ACHN
# [30] = test system: MDA-MB-231
# [31] = test system: HL-60
# [32] = test system: Malme-3M
# [33] = test system: SK-MEL-5
# [34] = test system: SF-268
# [35] = test system: HCC 2998
# [36] = test system: SN12C
# [37] = test system: SR
# [38] = test system: CCRF-CEM
# [39] = test system: NCI-H226
# [40] = test system: HCT-116
# [41] = test system: NCI-H460
# [42] = test system: T47D
# [43] = test system: HT-29
# [44] = test system: TK-10
# [45] = test system: SK-MEL-28
# [46] = test system: SK-MEL-2
# [47] = test system: K562
# [48] = test system: LOX IMVI
# [49] = test system: PC-3
# [50] = test system: U-251
# [51] = test system: UACC-257
# [52] = test system: SNB-75
# [53] = test system: NCI/ADR-RES
# [54] = test system: MCF7
# [55] = test system: MDA-N
# [56] = test system: MDA-MB-435
# [57] = test system: Hs-578T
# [58] = test system: HCT-15
smiles,measurement,setting,value
COc1cccc2c1/c(=C/c1ccc(N(C)C)cc1)c1cc(-c3ccccc3)[n+](C)n12,GI50,[1],126 nM (active)
same,GI50,[2],344 nM (active)
same,GI50,[3],98.6 nM (active)
same,GI50,[4],804 nM (active)
same,GI50,[5],528 nM (active)
same,GI50,[6],74 nM (active)
same,GI50,[7],509 nM (active)
same,GI50,[8],89.7 nM (active)
same,GI50,[9],85.7 nM (active)
same,GI50,[10],223 nM (active)
same,GI50,[11],27.2 nM (active)
same,GI50,[12],107 nM (active)
same,GI50,[13],81.3 nM (active)
same,GI50,[14],44.6 nM (active)
same,GI50,[15],131 nM (active)
same,GI50,[16],41.4 nM (active)
same,GI50,[17],87.5 nM (active)
same,GI50,[18],218 nM (active)
same,GI50,[19],93.3 nM (active)
same,GI50,[20],83 nM (active)
same,GI50,[21],305 nM (active)
same,GI50,[22],295 nM (active)
same,GI50,[23],112 nM (active)
same,GI50,[24],20.2 nM (active)
same,GI50,[25],169 nM (active)
same,GI50,[26],168 nM (active)
same,GI50,[27],182 nM (active)
same,GI50,[28],42.1 nM (active)
same,GI50,[29],216 nM (active)
same,GI50,[30],259 nM (active)
same,GI50,[31],15.5 nM (active)
same,GI50,[32],221 nM (active)
same,GI50,[33],155 nM (active)
same,GI50,[34],109 nM (active)
same,GI50,[35],34.8 nM (active)
same,GI50,[36],33.1 nM (active)
same,GI50,[37],38.5 nM (active)
same,GI50,[38],57.1 nM (active)
same,GI50,[39],177 nM (active)
same,GI50,[40],107 nM (active)
same,GI50,[41],106 nM (active)
same,GI50,[42],96.4 nM (active)
same,GI50,[43],73.6 nM (active)
same,GI50,[44],165 nM (active)
same,GI50,[45],239 nM (active)
same,GI50,[46],131 nM (active)
same,GI50,[47],49.3 nM (active)
same,GI50,[48],153 nM (active)
same,GI50,[49],32.1 nM (active)
same,GI50,[50],< 15.8 nM (active)
same,GI50,[51],113 nM (active)
same,GI50,[52],189 nM (active)
same,GI50,[53],3.19 µM (inactive)
same,GI50,[54],95.7 nM (active)
same,GI50,[55],82.6 nM (active)
same,GI50,[56],77.3 nM (active)
same,GI50,[57],147 nM (active)
same,GI50,[58],471 nM
